Results on nine molecules are retold here after PubChem BioAssay (NCI).

Some test systems named below: SF-268 CNS; SNB-19 CNS; NCI-H522 lung; NCI/ADR-RES ovarian; OVCAR-3 ovarian; HOP-92 NSCLC; HCT-15 colon; HT29 colon; SF-295 CNS; RPMI-8226 leukemia.
What all share (assay): NCI anticancer screen, dose series, 48 h

Each structure is given as a SMILES string.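 Results reflect a 48-hour exposure of cells in 96-well plates to compound at five concentrations. At the GI50, growth is halved. TGI marks complete inhibition of growth.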

Regarding `Cn1cc(C2=C(c3cn(CCCN/C(N)=N\[N+](=O)[O-])c4ccccc34)C(=O)NC2=O)c2ccccc21`, the GI50 is 3.11 µM with SF-268 CNS; 4.4 µM with SNB-19 CNS; 2.44 µM in the test with NCI-H522 lung; over 25 µM with NCI/ADR-RES ovarian; 1.17 µM in the test on OVCAR-3 ovarian; 3.89 µM in the test with HOP-92 NSCLC. Besides, the GI50 in the test with HCT-15 colon is 19.8 µM; with HT29 colon it was 2.87 µM; in the test with SF-295 CNS, 3.74 µM; in the test with RPMI-8226 leukemia, 5.64 µM. Besides, the TGI in the test on SF-268 CNS is 11.6 µM; with SNB-19 CNS it was 19 µM; in the test with NCI-H522 lung it was 9.99 µM; in the test on NCI/ADR-RES ovarian it was over 25 µM; in the test with OVCAR-3 ovarian, 11.4 µM; in the test with HOP-92 NSCLC, 16.2 µM. In addition, the TGI in the test on HCT-15 colon was over 25 µM; in the test with HT29 colon, 12.6 µM; in the test with SF-295 CNS, over 23.6 µM; in the test on RPMI-8226 leukemia, 14.8 µM.
In the case of `O=C1COCCN1c1ccc(NCc2cn(Cc3ccc(F)cc3)c3ccccc23)cc1`, the GI50 is 9.7 µM with SF-268 CNS; 19.4 µM in the test on SNB-19 CNS; 2.75 µM in the test on NCI-H522 lung; 5.44 µM with NCI/ADR-RES ovarian; 0.313 µM in the test with OVCAR-3 ovarian; 1.74 µM in the test with HOP-92 NSCLC. For the same molecule, the GI50 in the test with HCT-15 colon is 4.13 µM; with HT29 colon, 1.67 µM; in the test with SF-295 CNS it was 0.927 µM; with RPMI-8226 leukemia, 0.662 µM. Further, the TGI was 50.4 µM in the test with SF-268 CNS; over 100 µM in the test on SNB-19 CNS; 17.8 µM with NCI-H522 lung; 45.3 µM in the test on NCI/ADR-RES ovarian; 2.96 µM in the test on OVCAR-3 ovarian; 11.8 µM in the test with HOP-92 NSCLC. Besides, the TGI with HCT-15 colon is 31 µM; with HT29 colon, over 100 µM; in the test on SF-295 CNS it was 27.5 µM; with RPMI-8226 leukemia, 8.8 µM.
In the case of `CC(=O)SC(C[N+](=O)[O-])c1ccccc1` (centres undefined), the TGI with SF-268 CNS amounted to 22.6 µM; with SNB-19 CNS, 30.9 µM; in the test on NCI-H522 lung it was 31 µM; in the test on NCI/ADR-RES ovarian, 55.1 µM; in the test on OVCAR-3 ovarian, 20.7 µM; in the test with HOP-92 NSCLC, 30.4 µM. Moreover, the TGI in the test with HCT-15 colon came to 4.85 µM; in the test on HT29 colon, 4.22 µM; in the test on SF-295 CNS, 15.9 µM; in the test on RPMI-8226 leukemia, 5.18 µM.
In the case of `CN(Cc1cccc(Cl)c1)c1ccc(CO)c(Cl)c1`, the GI50 with SF-268 CNS was 24 µM; in the test with SNB-19 CNS it was 27.3 µM; with NCI-H522 lung it was 17.2 µM; in the test on NCI/ADR-RES ovarian it was 14.6 µM; in the test on OVCAR-3 ovarian, 3.46 µM; in the test with HOP-92 NSCLC, 3.15 µM. Moreover, the GI50 in the test on HCT-15 colon was 16.1 µM; in the test on HT29 colon it was 9.93 µM; with SF-295 CNS it was 3.7 µM; in the test on RPMI-8226 leukemia it was 12.2 µM. For the same molecule, the TGI with SF-268 CNS is over 53.5 µM; in the test with SNB-19 CNS it was over 100 µM; with NCI-H522 lung, 41.4 µM; in the test with NCI/ADR-RES ovarian, 44.1 µM; in the test with OVCAR-3 ovarian, 14 µM; with HOP-92 NSCLC it was 19.8 µM. Besides, the TGI is over 76.7 µM in the test on HCT-15 colon, 31.2 µM with HT29 colon, 32.1 µM in the test with SF-295 CNS and 55 µM in the test with RPMI-8226 leukemia.
As for `Nc1c2c(c(O)c3c1=C(CO)C=N3)=NCCS2=O` (centres undefined), the GI50 was 1.24 µM in the test with SF-268 CNS; 1.59 µM in the test on SNB-19 CNS; 1.37 µM with NCI-H522 lung; 2.51 µM in the test with NCI/ADR-RES ovarian; 0.28 µM in the test with OVCAR-3 ovarian; 2.67 µM in the test on HOP-92 NSCLC. Also, the GI50 was 2.99 µM in the test with HCT-15 colon, 1.78 µM in the test with HT29 colon, 2.12 µM with SF-295 CNS and 3.29 µM with RPMI-8226 leukemia. Further, the TGI stood at 3.27 µM with SF-268 CNS; 3.07 µM in the test with SNB-19 CNS; 3.3 µM in the test with NCI-H522 lung; 8.99 µM in the test with NCI/ADR-RES ovarian; 0.986 µM in the test with OVCAR-3 ovarian; 5.46 µM with HOP-92 NSCLC. For the same molecule, the TGI in the test on HCT-15 colon was found to be 10.6 µM; in the test with HT29 colon, 4.46 µM; with SF-295 CNS it was 4.12 µM; with RPMI-8226 leukemia, 13.5 µM.
On to `COc1ccc(/C=C2\CCC(CN(C)C)C2=O)cc1` (centres undefined), for which the TGI came out at 19.1 µM with SF-268 CNS; 23.2 µM in the test on SNB-19 CNS; 2.84 µM in the test with NCI-H522 lung; 5.07 µM in the test on NCI/ADR-RES ovarian; 10.6 µM in the test on OVCAR-3 ovarian; 28.2 µM in the test with HOP-92 NSCLC. Besides, the TGI in the test with HCT-15 colon amounted to 6.49 µM; in the test with HT29 colon, 24.1 µM; in the test on SF-295 CNS, 32.1 µM; in the test on RPMI-8226 leukemia it was 3.97 µM.
For `CN(CC(=O)O)Cc1c[nH]c2ccccc12`, the TGI with SF-268 CNS, in the test with SNB-19 CNS, with NCI-H522 lung, in the test on NCI/ADR-RES ovarian, in the test on OVCAR-3 ovarian and in the test on HOP-92 NSCLC was over 100 µM each time. Also, the TGI in the test with HCT-15 colon, with HT29 colon, with SF-295 CNS and in the test on RPMI-8226 leukemia was over 100 µM each time.
Turning to `O=c1c(-c2nc3ccccc3[nH]2)cc2ccccc2n1Cc1cn(Cc2ccc(F)cc2)nn1`, the GI50 with SF-268 CNS was 0.259 µM; in the test with SNB-19 CNS it was 0.305 µM; in the test with NCI-H522 lung, 0.0957 µM; with NCI/ADR-RES ovarian, 1.28 µM; in the test with OVCAR-3 ovarian, 0.15 µM; in the test on HOP-92 NSCLC it was 0.364 µM. Moreover, the GI50 was 0.399 µM with HCT-15 colon, 0.041 µM in the test with HT29 colon, 0.253 µM in the test with SF-295 CNS and 0.0427 µM in the test with RPMI-8226 leukemia. Besides, the TGI is 57.6 µM in the test with SF-268 CNS; 25.2 µM with SNB-19 CNS; 19.2 µM in the test on NCI/ADR-RES ovarian; 0.911 µM in the test on OVCAR-3 ovarian; 18.2 µM in the test on HOP-92 NSCLC; over 50.9 µM in the test on HCT-15 colon. Further, the TGI in the test with HT29 colon was 96.9 µM; with SF-295 CNS it was 11 µM; in the test with RPMI-8226 leukemia, over 100 µM.
In the case of `COC(=O)c1cccc(COc2ccc([N+](=O)[O-])cc2Cl)c1`, the TGI in the test on SF-268 CNS, in the test with SNB-19 CNS, in the test on NCI-H522 lung, with NCI/ADR-RES ovarian, with OVCAR-3 ovarian and with HOP-92 NSCLC was over 100 µM each time. Also, the TGI in the test with HCT-15 colon, with HT29 colon, with SF-295 CNS and in the test with RPMI-8226 leukemia was over 100 µM throughout.
